Here are results for 17 compounds from US11999727B2 (Tango Therapeutics, Inc., priority 2020, dated 2024).

Like-named read-outs stand apart in the source and are kept apart here.

Test [1] deals with HAP1 MTAP-intact cell line. Put plainly: SDMA in-cell western assay, HAP1 MTAP-intact. It counts as cell-based. The following applies: HAP1 MTAP-intact, read-out: MTAP HAP1 intact IC50. An outline of the steps:
(§1)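 Isogenic HAP1 pair: the MTAP-intact line expresses endogenous MTAP, and the deleted line is MTAP-null. Symmetric dimethylarginine was detected by in-cell western and IC50 values derived for each line.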

Test [2] concerns HAP1 MTAP-deleted cell line. Put plainly: SDMA in-cell western assay, HAP1 MTAP-deleted. It counts as cell-based. The following applies: for IC50: Homo sapiens, HAP1, SDMA in-cell western, HAP1 MTAP-deleted, read-out: HAP 1 MTAP deleted IC50; for MTAP intact/deleted ratio: IC50 ratio HAP1 MTAP-intact / HAP1 MTAP-deleted, SDMA in-cell western. An outline of the steps:
as §1

Test [3] deals with T1, PRMT5 (Homo sapiens, UniProt O14744).
T1 construct: purchased Viva (custom protein)
Put plainly: PRMT5 biochemical IC50 assay with MTA as cofactor. The following applies: PRMT5, MTA as cofactor; read-out: MTA IC50.

The subject of test [4] is HAP1 MTAP-deleted cell line. Description: Viability assay, MTAP-deleted cell line. It counts as cell-based. The following applies: Homo sapiens, read-out: HAP1 MTAP deleted viability. From the text: Table 1 additionally indicates IC50 values in a viability assay for the MTAP-deleted cell line (column 10), indicating the effect of treatment with compound on cell survival.

In test [5] the target is T1, PRMT5. Description: PRMT5 biochemical IC50 assay with no cofactor. The following applies: PRMT5, no cofactor; read-out: No Cofactor/ rel IC50. From the text: Table 1 indicates IC50 values (μM) against PRMT5 for exemplary compounds in the presence of SAM as cofactor, with no cofactor, and with MTA as cofactor, respectively (columns 4-6). […] Ki values can be calculated from the IC50 values as described in the Examples section. As detailed in the Examples section, for the assay performed in the presence of SAM, IC50=Ki×1.5 (Ki=IC50/1.5).

The target in test [6] is T1, PRMT5. Description: PRMT5 biochemical IC50 assay with SAM as cofactor. The settings on record: PRMT5, SAM as cofactor; read-out: SAM IC50.
[7] abbreviates: Homo sapiens, HAP1, SDMA in-cell western.
Where [8] appears, read: HAP1, viability, HAP1 MTAP-deleted cell line.
[9] abbreviates: HAP1, viability assay, MTAP-deleted cell line.

T1 sequence (O14744 whole entry): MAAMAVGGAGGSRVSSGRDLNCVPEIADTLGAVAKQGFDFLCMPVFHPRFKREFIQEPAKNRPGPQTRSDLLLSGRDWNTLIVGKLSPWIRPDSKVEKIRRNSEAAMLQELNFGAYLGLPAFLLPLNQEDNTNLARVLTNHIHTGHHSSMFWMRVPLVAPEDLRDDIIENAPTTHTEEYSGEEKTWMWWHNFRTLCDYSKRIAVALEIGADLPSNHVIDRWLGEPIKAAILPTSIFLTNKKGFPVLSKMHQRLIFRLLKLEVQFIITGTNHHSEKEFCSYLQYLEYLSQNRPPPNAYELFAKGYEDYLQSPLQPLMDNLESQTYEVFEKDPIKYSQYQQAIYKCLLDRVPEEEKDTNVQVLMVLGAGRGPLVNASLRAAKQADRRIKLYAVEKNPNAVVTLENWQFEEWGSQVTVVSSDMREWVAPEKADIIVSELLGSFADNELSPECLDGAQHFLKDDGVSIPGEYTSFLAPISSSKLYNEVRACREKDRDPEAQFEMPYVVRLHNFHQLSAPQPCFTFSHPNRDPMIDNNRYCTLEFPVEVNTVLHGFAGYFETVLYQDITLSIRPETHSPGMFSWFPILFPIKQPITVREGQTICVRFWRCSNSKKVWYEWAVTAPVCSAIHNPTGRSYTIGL
T1 sequence (Q9BQA1 whole entry partner): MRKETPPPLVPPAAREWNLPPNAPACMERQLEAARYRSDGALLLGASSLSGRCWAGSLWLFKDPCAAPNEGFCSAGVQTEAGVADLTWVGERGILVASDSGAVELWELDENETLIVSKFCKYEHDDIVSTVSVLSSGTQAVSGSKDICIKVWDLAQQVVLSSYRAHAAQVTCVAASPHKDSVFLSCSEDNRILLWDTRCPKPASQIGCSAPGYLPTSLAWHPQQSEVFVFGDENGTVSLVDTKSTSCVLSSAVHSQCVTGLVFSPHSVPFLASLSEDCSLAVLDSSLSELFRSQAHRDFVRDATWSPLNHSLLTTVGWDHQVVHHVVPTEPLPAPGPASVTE

Regarding `C[C@@H]1CC[C@@H](c2ccc3[nH]ncc3c2)N(C(=O)C(=O)Nc2cnc(N)c(C3CC3)c2)C1` (single isomer, unassigned) [Compound 1361], the IC50 was over 1000 nM in test [1] (setting [7]); over 1000 nM in test [2]; over 500 nM on PRMT5 [3]; over 10000 nM in test [4] (setting [8]); over 500 nM on PRMT5 [5]; over 500 nM on PRMT5 [6].
With `COc1ncc(NC(=O)C(=O)N2C[C@H](C)[C@H](OC)C[C@H]2c2ccc3scnc3c2)cc1C(N)=O` (single isomer, unassigned) [Compound 1364], the IC50 in test [1] (setting [7]) was 100 to 1000 nM; in test [2] it was under 100 nM; at PRMT5 [3] it was under 50 nM; in test [4] (setting [8]), under 1000 nM; on PRMT5 [5], under 50 nM; on PRMT5 [6], 50 to 500 nM. The “MTAP intact/deleted ratio” value in test [2] was “A (an IC50 ratio greater than or equal to 10 fold)”.
For the compound `CO[C@H]1C[C@H](c2ccc3scnc3c2)N(C(=O)C(=O)Nc2cnc(N)c(C3CC3)c2)C[C@H]1C` (single isomer, unassigned) [Compound 1370], the IC50 in test [1] (setting [7]) was under 100 nM; in test [2], under 100 nM; at PRMT5 [3] it was under 50 nM; in test [4] (setting [8]), under 1000 nM; on PRMT5 [5], under 50 nM; at PRMT5 [6] it was 50 to 500 nM. Moreover, the “MTAP intact/deleted ratio” value in test [2] is “A (an IC50 ratio greater than or equal to 10 fold)”.
Regarding `CCc1cc(NC(=O)C(=O)N2C[C@@H](C)CC[C@@H]2c2ccc(N3CCN(C)CC3)cc2)cnc1N` (single isomer, unassigned) [Compound 1371], the IC50 in test [1] (setting [7]) was 100 to 1000 nM; in test [2] it was under 100 nM; at PRMT5 [3], under 50 nM; in test [4] (setting [8]), under 1000 nM; on PRMT5 [5] it was under 50 nM; at PRMT5 [6], 50 to 500 nM. For the same compound, the “MTAP intact/deleted ratio” value in test [2] was “A (an IC50 ratio greater than or equal to 10 fold)”.
Regarding `CCc1cc(NC(=O)C(=O)N2C[C@H](C)CC[C@H]2c2ccc3c(cnn3CCN(C)C)c2)cnc1N` (single isomer, unassigned) [Compound 1374], the IC50 in test [1] (setting [7]) was 100 to 1000 nM; in test [2], under 100 nM; at PRMT5 [3] it was under 50 nM; in test [4] (setting [8]), under 1000 nM; on PRMT5 [5], under 50 nM; on PRMT5 [6] it was 50 to 500 nM. Further, the “MTAP intact/deleted ratio” value in test [2] is “A (an IC50 ratio greater than or equal to 10 fold)”.
As to `CCc1cc(NC(=O)C(=O)N2C[C@H](C)CC[C@H]2c2ccc3sc(CCOC)nc3c2)cnc1N` (single isomer, unassigned) [Compound 1375], the IC50 in test [1] (setting [7]) was over 1000 nM; in test [2], over 1000 nM; at PRMT5 [3], over 500 nM; in test [4] (setting [8]) it was over 10000 nM; at PRMT5 [5], over 500 nM; at PRMT5 [6], over 500 nM.
As to `CCc1cc(NC(=O)C(=O)N2C[C@@H](C)CC[C@@H]2c2ccc3sc(CCOC)nc3c2)cnc1N` (single isomer, unassigned) [Compound 1386], the IC50 in test [1] (setting [7]) was 100 to 1000 nM; in test [2], under 100 nM; at PRMT5 [3], under 50 nM; in test [4] (setting [8]), under 1000 nM; at PRMT5 [5], under 50 nM; on PRMT5 [6] it was 50 to 500 nM. Also, the “MTAP intact/deleted ratio” value in test [2] is “A (an IC50 ratio greater than or equal to 10 fold)”.
Consider `Cc1cc(NC(=O)C(=O)N2C[C@@H](C)CC[C@@H]2c2cc3cn[nH]c3s2)cnc1N` (single isomer, unassigned) [Compound 1392], for which the IC50 in test [1] (setting [7]) was 100 to 1000 nM; in test [2], under 100 nM; on PRMT5 [3], under 50 nM; in test [4] (setting [8]) it was under 1000 nM; on PRMT5 [5] it was 50 to 500 nM; on PRMT5 [6] it was 50 to 500 nM. In addition, in test [2], the “MTAP intact/deleted ratio” value is “A (an IC50 ratio greater than or equal to 10 fold)”.
As to `CCc1cc(NC(=O)C(=O)N2C[C@@H](C)CC[C@@H]2c2ccc3sc([C@H]4CCN(C)C(C)(C)C4)nc3c2)cnc1N` (single isomer, unassigned) [Compound 1397], the IC50 in test [1] (SDMA in-cell western) was under 100 nM; in test [2] it was under 100 nM; on PRMT5 [3], under 50 nM; in test [4] (setting [8]) it was under 1000 nM; at PRMT5 [5] it was under 50 nM; at PRMT5 [6], 50 to 500 nM. For the same compound, in test [2], the “MTAP intact/deleted ratio” value is “A (an IC50 ratio greater than or equal to 10 fold)”.
As for `C[C@@H]1CC[C@@H](c2ccc3cn(C)nc3c2)N(C(=O)C(=O)Nc2cnc(N)c(C3CC3)c2)C1` (single isomer, unassigned) [Compound 1403], the IC50 was 100 to 1000 nM in test [1] (setting [7]); under 100 nM in test [2]; under 50 nM at PRMT5 [3]; under 1000 nM in test [4] (setting [8]); under 50 nM on PRMT5 [5]; 50 to 500 nM on PRMT5 [6]. Moreover, in test [2], the “MTAP intact/deleted ratio” value was “A (an IC50 ratio greater than or equal to 10 fold)”.
On to `CC(=O)N1CCC(c2cccc(C3CCCCN3C(=O)C(=O)Nc3cncc(C)c3)c2)CC1` (stereo not drawn) [Compound 7, 2-(2-(3-(1-acetylpiperidin-4-yl)phenyl)piperidin-1-yl)-N-(5-methylpyridin-3-yl)-2-oxoacetamide], for which the IC50 is over 1000 nM in test [1] (setting [7]); over 1000 nM in test [2]; 50 to 500 nM on PRMT5 [3]; over 10000 nM in test [4] (setting [9]); over 500 nM on PRMT5 [5]; over 500 nM on PRMT5 [6]. Also, the “MTAP intact/deleted ratio” value in test [2] is on record as “C (an IC50 ratio of less than 3 fold)”.
Regarding `Cc1cc(NC(=O)C(=O)N2CCCCC2c2cccs2)cnc1N` (stereo not drawn) [Compound 9, N-(6-Amino-5-methylpyridin-3-yl)-2-oxo-2-(2-(thiophen-2-yl)piperidin-1-yl)acetamide], the IC50 in test [1] (setting [7]) is over 1000 nM; in test [2] it was 100 to 1000 nM; on PRMT5 [3] it was under 50 nM; in test [4] (setting [9]) it was over 10000 nM; on PRMT5 [5], 50 to 500 nM; at PRMT5 [6] it was 50 to 500 nM. Besides, in test [2], the “MTAP intact/deleted ratio” value is on record as “A (an IC50 ratio greater than or equal to 10 fold)”.
As for `Cc1cncc(NC(=O)C(=O)N2CCCCC2c2cccc(N(C)C)c2)c1` (stereo not drawn) [Compound 15, 2-(2-(3-(dimethylamino)phenyl)piperidin-1-yl)-N-(5-methylpyridin-3-yl)-2-oxoacetamide], the IC50 in test [1] (setting [7]) was over 1000 nM; in test [2], over 1000 nM; on PRMT5 [3] it was 50 to 500 nM; in test [4] (setting [9]) it was over 10000 nM; at PRMT5 [5], over 500 nM; at PRMT5 [6], over 500 nM. For the same compound, the “MTAP intact/deleted ratio” value in test [2] is given as “C (an IC50 ratio of less than 3 fold)”.
With `Cn1nccc1C1CCCCN1C(=O)C(=O)Nc1cncc(C(N)=O)c1` (stereo not drawn) [Compound 26, 5-[[2-[2-(2-methylpyrazol-3-yl)-1-piperidyl]-2-oxo-acetyl]amino]pyridine-3-carboxamide], the IC50 was over 1000 nM in test [1] (setting [7]); 100 to 1000 nM in test [2]; 50 to 500 nM on PRMT5 [3]; over 10000 nM in test [4] (setting [9]); over 500 nM on PRMT5 [5]; 50 to 500 nM on PRMT5 [6]. The “MTAP intact/deleted ratio” value in test [2] is recorded as “A (an IC50 ratio greater than or equal to 10 fold)”.
Take `NC(=O)c1cncc(NC(=O)C(=O)N2CCCCC2c2ccccc2)c1` (stereo not drawn) [Compound 29, 5-[[2-oxo-2-(2-phenyl-1-piperidyl)acetyl]amino]pyridine-3-carboxamide]: the IC50 in test [1] (setting [7]) is over 1000 nM; in test [2], 100 to 1000 nM; on PRMT5 [3] it was 50 to 500 nM; in test [4] (setting [9]) it was over 10000 nM; on PRMT5 [5] it was over 500 nM; on PRMT5 [6], 50 to 500 nM. Also, the “MTAP intact/deleted ratio” value in test [2] was “A (an IC50 ratio greater than or equal to 10 fold)”.
As to `Cc1cc(NC(=O)C(=O)N2CCCCC2C2CCCCC2)cnc1N` (stereo not drawn) [Compound 30, N-(6-amino-5-methyl-3-pyridyl)-2-[2-cyclohexyl-1-piperidyl]-2-oxo-acetamide], the IC50 in test [1] (setting [7]) is over 1000 nM; in test [2], 100 to 1000 nM; at PRMT5 [3] it was 50 to 500 nM; in test [4] (setting [9]), over 10000 nM; at PRMT5 [5] it was 50 to 500 nM; at PRMT5 [6], 50 to 500 nM. Also, the “MTAP intact/deleted ratio” value in test [2] is recorded as “A (an IC50 ratio greater than or equal to 10 fold)”.
Regarding `Cc1cc(NC(=O)C(=O)N2CCCCC2c2cccnc2)cnc1N` (stereo not drawn) [Compound 38, N-(6-Amino-5-methyl-3-pyridyl)-2-oxo-2-[2-(3-pyridyl)-1-piperidyl]acetamide], the IC50 was over 1000 nM in test [1] (setting [7]); over 1000 nM in test [2]; 50 to 500 nM on PRMT5 [3]; over 10000 nM in test [4] (setting [9]); 50 to 500 nM at PRMT5 [5]; 50 to 500 nM on PRMT5 [6]. For the same compound, in test [2], the “MTAP intact/deleted ratio” value was “B (an IC50 ratio greater than or equal to 3 fold but lower than 10 fold)”.
